From a melting point compilation (Tetko et al.; mined from patent text by program, amines drawn as free bases though some values may be those of a salt)

Compound	melting point [°C]
CC(C)(C)SC[C@@H]1NC(=O)[C@@H](CSSC[C@@H]2NC(=O)[C@@H](CSC(C)(C)C)NC2=O)NC1=O	278
CCOC(=O)c1ccn(-c2ccc(OCC)cc2)n1	88 to 90
CCOC(=O)c1ccccc1-n1c(=O)[nH]c2ccccc2c1=O	196 to 197
O=C(O)c1cccc(CCc2n[nH]c3c2c(=O)n(-c2ccccc2)c2ncccc32)c1	159 to 161
N#Cc1cnn2c1NCC=C2c1ccc(Cl)cc1	208 to 209
COc1cccc2cc(C(=O)c3ccc(Cl)c(S(=O)(=O)Cl)c3)oc12	143 to 145
C#CCn1c(=O)sc2cc(F)c(-n3c(=O)cc(C)n(C)c3=O)cc21	180 to 181
COC(=O)CNC(=O)COc1ccc(C(C)=O)cc1	120 to 121
Cc1nc(C(O)C2CCc3c(C)c4ccccc4n3C2=O)c[nH]1 (stereo unspecified)	210 to 211
CCCCCCCCCCCCCCCCCC1CC(OC(=O)c2ccccc2)C(CC)C(=O)O1 (racemic)	64.5 to 66
NC(=S)Nc1ccc(C2=NNC(=O)Cc3cc4c(cc32)OCO4)cc1	236 to 238
N#Cc1ccc(NC(=S)NCc2ccccn2)cc1	144
O=[N+]([O-])c1ccc2c(c1)C=CCCO2	94 to 95.5
O=C(N1CCN(c2ccccc2)CC1)N1CC(Oc2ccc(F)cc2)C1	124 to 125
CN1C(=O)CC[C@]2(C)c3ccc(-c4ccccc4[N+](=O)[O-])cc3CC[C@@H]12	130 to 131
CN(C)C(=O)c1nc2n(n1)-c1ccc(Cl)cc1C(c1ccccc1)=NC2	135 to 137
CCC1CCCCN1C(=O)C=Cc1c(-c2cccc(Cl)c2)nn2ccccc12 (stereo unspecified)	100 to 104
N#Cc1cccc(C(F)(F)F)c1O	134
Cn1nc(-c2ccc3cc(O)ccc3c2)c2ccc(O)cc21	290 to 292
Cn1ncc(C(=O)N2CCC2)c1C(=O)Nc1ccn2nc(-c3ccncc3)nc2c1	> 250
O=C(CN1C(=O)CC1Sc1ccc(Cl)cc1)NCCCCCCc1ccccc1 (stereo unspecified)	52 to 54
Cc1nnc2n1-c1ccccc1NC2(C)C	177 to 178
Nc1nc(N)c2cc(CCc3ccccc3)ccc2n1	178 to 180
COC(=O)c1ccc(CSCC(=O)[C@H](Cc2ccccc2)NC(=O)[C@H](CC(C)C)NC(=O)OCc2ccccc2)o1	85 to 93

Compound	melting point [°C]
O=C(NC(Cc1ccccc1F)C(=O)N1CCSC1)c1cc2cc(Cl)ccc2[nH]1 (stereo unspecified)	216 to 217
Oc1ccc2nc(-c3ccc4ccccc4c3)oc2c1	226
Cc1nn(C)c(OCC(=O)c2ccccc2)c1C(=O)c1ccc(Cl)c(C)c1Cl	150 to 152
O=C(Cc1cccs1)N1C(=O)OC[C@@H]1Cc1ccccc1	56 to 59
CC(NC(=O)C(N)Cc1ccccc1)C(N)=O (stereo unspecified)	95 to 97
C=C1CCn2c(CCc3ccccc3)nc3cccc1c32	81 to 82.2
CCOc1nc2c(nc1C(=O)N1CCN(C)CC1)c(C)nn2CC	111 to 112
O=c1[nH]c2ncc(-c3ccc4[nH]ccc4c3)nc2n1CC1CCOCC1	305 to 308
COCc1cnc2c(NC(=O)c3c(Cl)cccc3Cl)cccc2c1-n1ccnc1	145 to 150
NC(=O)c1c(Cl)c(-c2ccccc2)n2c1CN(S(=O)(=O)c1cccc(C(F)(F)F)c1)CC2	158 to 159
O=C(O)c1cc[nH]c1Sc1ccc(Cl)cc1Cl	160 to 164
CCc1oc2ccccc2c1C(=O)NCc1ccc2c(Br)c(OC(Cc3ccccc3)C(=O)O)ccc2c1 (stereo unspecified)	162 to 165
CC(C)(C)C1=CC(=S)N=N1	147 to 148
O=C1c2cccc(F)c2C(=O)N1CCN1CCC(c2noc3cc(F)ccc23)CC1	142 to 143
N#Cc1cccc(-c2nc(Nc3cnccn3)sc2-n2cncn2)c1	> 250
CCC1C(C)=NN=C(c2ccc(OC)c(OC)c2)c2cc(OC)c(OCCCN(C)C)cc21 (stereo unspecified)	126 to 128
CCCN1CCC(c2c(O)cc(O)c3c(=O)cc(-c4ccccc4Cl)oc23)C1CO (stereo unspecified)	94 to 96
COc1ccccc1N1CCN(CCNc2ccccc2[N+](=O)[O-])CC1	117 to 118
O=[N+]([O-])c1ccc(CCN2CCN(C3CCc4ccccc4C3O)CC2)cc1 (stereo unspecified)	155 to 159
COc1ccc(-c2ccncc2)cc1-c1ccc2nonc2c1	187 to 192
CS(=O)(=O)Nc1ccc([N+](=O)[O-])nc1	187 to 189
Cc1c(Br)ccc(S(C)(=O)=O)c1S(C)(=O)=O	169 to 171
Cc1ccc(-c2ccc3c(c2)C=C(C(=O)Nc2ccc(CCl)cc2)CCO3)cc1	164
COc1ccc(-c2nc3ncccc3o2)cc1OC1CCCC1	108 to 109

Compound	melting point [°C]
O=C(NC(Cc1ccc(OCc2ccccc2)cc1)C(=O)O)c1cn2cc(-c3ccncc3)ccc2n1 (stereo unspecified)	268
COc1cccc(-c2nc(Cl)nc(Cl)n2)c1	114
COC(N)=CC(=NC#N)OC	116 to 121
CCOC(=O)COC1CCC2C3CCC4NC(=O)CCC4(C)C3CCC12C (stereo unspecified)	170 to 172
CN1CCN(c2ccc(NC(=O)C3(C)CC3)cc2C(F)(F)F)C1=O	90 to 91
C/C(=C\c1ccc(C(=O)OC(C)C)cc1)c1ccc2c(c1)C(C)(C)CCC2(C)C	119 to 120
OCC(Nc1ccnc2cc(Cl)ccc12)c1ccccc1 (stereo unspecified)	220 to 221
c1ccc(Cc2ncc(-c3ccc4cc(OCc5nnn[nH]5)ccc4c3)o2)cc1	227 to 228
CCn1ncc2c1ncc1c(Cl)nc3cc(C)nn3c12	179 to 180
CCOc1cc([C@@H](CS(C)(=O)=O)N2Cc3cccc(NCC(C)C)c3C2=O)ccc1OC	122 to 124
CC1(C)Oc2cccc(S(N)(=O)=O)c2O1	100 to 112
CN(C)c1ccc(NC(=O)N(Cc2ccccc2)C[C@@H]2CCCC[C@H]2CN(Cc2ccccc2)C(=O)Nc2ccc(N(C)C)cc2)cc1 (relative stereo)	109 to 113
CCCCCCCN(CCN1CCN(CCSc2nc3cccc(C(=O)OC)c3o2)CC1)C(=O)Nc1c(C(C)C)cccc1C(C)C	125 to 126
C=Cc1cc2cc(OC)ccc2[nH]1	80 to 81
O=C(O)C1CCc2cc(O)ccc2O1 (racemic)	175 to 177
CCOC(=O)c1cn(Cc2ccccc2)nc1NC(=O)NC1CCCCC1	94 to 95
CC1(C)CCCN(C(=O)[C@H]2C[C@H](S(=O)(=O)c3ccccc3)[C@@H](c3ccccc3F)N2)C1 (racemic)	210
COc1cccc(CNc2nc(SCc3ccccc3)nc3nc[nH]c23)c1O	193 to 194
CCCCCn1cc(C(=O)O)c(=O)cc1C	126
COc1ccc(CBr)c(CBr)c1	48 to 50
CN(Cc1ccccc1)c1ncnc2c(N3CCOCC3)nc(N3CCC(NCc4ccccc4)CC3)nc12	103 to 106
CC(C)(C)CC(C)(C)c1ccc(O)c(-n2nc3ccc(C(F)(F)F)cc3n2)c1	80 to 81
COc1ccc2cc(CN(C)C(=O)c3cn(C)c4ccccc34)ccc2c1Br	168 to 169
